According to patent US6603062B1, “Method for producing transgenic plants with modified 5-aminolevulinic acid biosynthesis, method for identifying 5-aminolevulinic acid synthesis effectors” (Aventis CropScience GmbH, priority 1997, dated 2003):

Columns and labels:
[1] = system: transgenic maize lines with the ALAS gene; experiment: Tolerance of transgenic maize lines with the ALAS (hemA) gene to the GSAAT inhibitor; type: in vivo; conditions: 100 μM; compared with untreated controls on medium without inhibitor
Description: To produce transgenic maize plants which contain an expression cassette for Rhodobacter sphaeroides hemA gene, a transformation was carried out as described in EP-A 0 469 273, with the difference that pALAS3f was employed as the DNA to be transferred. 41 independent maize transformants were obtained. Amongst these lines termed M23T1, M25T1 to M25T13 and M27T1 to M27T27, plants were regenerated as described. The presence of the complete hemA gene was detected in all transgenic plants by means of PCR using the oligodeoxynucleotides ALAS1 and ALAS2 (see Example 1) as PCR primers.
(§1) The tolerance of transgenic lines to 3-amino-2,3-dihydrobenzoic acid is determined in comparison with the nontransgenic original line. To this end, five regenerate plants per line whose size and root system visually corresponds to the above-described seedlings after six days germination are transferred to media without 3-amino-2,3-dihydrobenzoic acid (one plant) and with 100 μM 3-amino-2,3-dihydrobenzoic acid (four plants) and grown on.

GSAAT = biological target: T1, GSAAT (Hordeum vulgare, UniProt P18492); conditions: background, Beale (1990); cited from earlier work
T1 sequence (P18492 35-469): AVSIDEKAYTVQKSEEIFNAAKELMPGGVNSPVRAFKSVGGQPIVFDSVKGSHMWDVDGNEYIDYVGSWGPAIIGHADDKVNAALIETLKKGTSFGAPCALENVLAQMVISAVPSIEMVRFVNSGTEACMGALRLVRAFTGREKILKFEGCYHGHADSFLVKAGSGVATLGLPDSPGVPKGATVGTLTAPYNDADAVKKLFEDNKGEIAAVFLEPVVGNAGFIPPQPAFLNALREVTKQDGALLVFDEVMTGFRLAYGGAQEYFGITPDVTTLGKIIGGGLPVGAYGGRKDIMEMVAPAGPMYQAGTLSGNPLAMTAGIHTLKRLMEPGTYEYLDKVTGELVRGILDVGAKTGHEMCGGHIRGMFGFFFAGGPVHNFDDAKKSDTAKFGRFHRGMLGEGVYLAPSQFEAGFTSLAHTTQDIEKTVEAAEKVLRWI

untransformed maize line = experiment: Tolerance threshold of the untransformed maize line to the GSAAT inhibitor; type: in vivo; conditions: for wet weight of nontransgenic plants: six days after medium change, means of 10 plants without root and seed kernel remains
Description: First, the tolerance threshold of the untransformed maize line over the GSAAT inhibitor 3-amino-2,3-dihydrobenzoic acid was determined. To this end, the maize seeds were surface-sterilized by washing them under sterile conditions first for 1 minute in 70% ethanol, then for 20 minutes in 5% sodium hypochlorite, 0.1% Tween 20 and subsequently six times briefly in sterile water. The seeds were then placed under sterile conditions on Murashige & Skoog medium (micro- and macronutrients, Sigma GmbH #M5524) containing 90 g/l sucrose and 8 g/l agar and grown for six days at room temperature under daylight fluorescent tubes in a 12-hour-light/12-hour-dark photoperiod until the second leaf emerged. At this stage, the plantlets were transferred to fresh medium with various concentrations of 3-amino-2,3-dihydrobenzoic acid.
After the plants had been grown for a further 10 days, the effect of the inhibitor was recorded. […] Six days after the medium was changed, the following wet weights were found for the nontransgenic plants (in each case means of 10 individual plants without root and remains of the seed kernel):
as §1

Lemna gibba = experiment: Lemna test; type: in vivo; conditions: 20 μM in culture solution
Description: The phytotoxic action of GSAAT inhibitors was also determined in vivo by treating Lemna cultures.
To this end, Lemna gibba was cultured in sterile culture solution (0.4 g/l KNO3, 0.8 g/l CaCl2*2H2O, 0.366 g/l MgSO4*7H2O, 0.2 g/l KH2PO4, 2 ml/l solution I (2.23 g/l MnSO44H2O, 83 mg/l Kl, 2.5 mg/l CoCl2*6H2O, 0.86 g/l ZnSO4*7H2O, 2.5 mg/l CuSO4*5H2O, 0.62 g/l H3BO3, 25 mg/l Na2MoO4*2H2O) and 2 ml/l solution II(14.92 g/l Na-EDTA, 10.92 g/l FeSO4*7H2O)). In each case 3 plants were placed under sterile conditions into the a 100 ml Erlenmeyer flask which was filled with 50 ml culture solution containing the GSAAT inhibitor in a concentration of 20 μM. The culture flasks were illuminated at 25° C. with two 36 W daylight fluorescence tubes at a distance of 70 cm (24-hour light photoperiod). Growth and phenotype of the Lemna plants were observed over 7 days and compared with the growth and the phenotype of Lemna plants which had been grown in culture solution without inhibitor under otherwise identical conditions. It was characteristic of the phytotoxic effect of a GSAAT inhibitor that the newly-formed tissues were chlorotic. When light intensities were high, it was also possible for the plant tissue to become necrotic. Compounds with a rapid action frequently led to complete destruction of the plants after only one day, while the more slowly acting compounds first led to growth depression.

[2] = biological target: T2, recombinant Hordeum vulgare GSAAT (Hordeum vulgare, UniProt P18492); experiment: GSAAT activity test (photometric detection of derivatized 5-aminolevulinic acid); type: biochemical; conditions: pH 6.5, 20° C., read-out: concentration leading to a 50% reduction in GSAAT activity
T2 construct: The mature Hordeum vulgare GSAAT was produced recombinantly in Escherichia coli; made in house; host or cells: Escherichia coli TG1, expression plasmid pATE19 co-transformed with pGroESL
T2 sequence (P18492 35-469): T1 sequence (P18492 35-469)
Description: GSAAT activity was detected by a photometric detection of the derivatized reaction product 5-aminolevulinic acid. The activity test was carried out in a 96-well flat-bottom microtiter plate (F form) made of polystyrene.
It was possible to carry out the desired number of individual measurements in parallel in the wells of the microtiter plate. The following information relates in each case to one well of the microtiter plate (MTP).
At a temperature of 20° C., 100 μl of enzyme solution (25 pkat/ml recombinant Hordeum vulgare GSAAT, 250 mM Bis Tris/HCl pH 6.5) and 10 μl of 25% (v/v) dimethyl sulfoxide in water were introduced into the well. […]
Immediately after the enzymatic reaction had started, the mixture was incubated for 30 minutes at 20° C. […] After the incubation had ended, the absorption of the solution was determined immediately at a wavelength of 540 nm with the aid of a microtiter plate photometer.
To determine the enzymatically formed quantity of 5-aminolevulinic acid, the blank value (see below) was first deducted from the absorption of the mixture to be analyzed. The difference between measured value and blank value was used for calculating, with the aid of a calibration series, the concentration of 5-aminolevulinic acid in the reaction mixture at the time immediately prior to addition of the ethyl acetoacetate. […]

[3] = 100 μM, after a further 10 days

SMILES	phenotype of regenerated plants of most transgenic lines [1]	effect on GSAAT (GSAAT)	wet weight of nontransgenic plants (untransformed maize line; 1 μM in medium) [g]	wet weight of nontransgenic plants (untransformed maize line; 5 μM in medium) [g]	wet weight of nontransgenic plants (untransformed maize line; 10 μM in medium) [g]	wet weight of nontransgenic plants (untransformed maize line; 100 μM in medium) [g]	biomass production (untransformed maize line; [3])	phenotype of newly-formed tissue (untransformed maize line; [3])	phenotype of regenerated plants of the nontransgenic line (untransformed maize line; 100 μM, compared with the untreated control)	biomass production (untransformed maize line; concentration under 5 μM, after a further 10 days)	plants that had died (Lemna gibba; after 72 hours)	phytotoxic effect on Lemna plants (Lemna gibba; within 48 hours)	IC50 [2] [µM]
NC1C=CC=C(C(=O)O)C1 (stereo not shown) [3-amino-2,3-dihydrobenzoic acid]	none of the regenerated plants in the presence of 100 μM 3-amino-2,3-dihydrobenzoic acid shows chloroses or reduced growth	inhibited	4.15	3.82	3.12	1.53	markedly reduced	marked chlorosis	marked chlorosis and reduced biomass production	unaltered within the normal variations			
NNCCCS(=O)(=O)O [compound A, hydrazinopropylsulfonic acid]											over 60%	chloroses and growth depression	6
